Values joined by “and” are separate entries in the source; they are usually repeats but may differ in a detail not shown here. Identical values can stand only once.
Test: molar heat capacity at constant pressure
Settings: 101.33 kPa, Small (less than 1 g) adiabatic calorimetry

CCOS(=O)(=O)[O-].CCn1cc[n+](C)c1 [1-ethyl-3-methylimidazolium ethyl sulfate]
Settings	molar heat capacity at constant pressure
180.75 K, Glass	245 J/K/mol
181.34 K, Glass	247.6 J/K/mol
182.03 K, Glass	250.7 J/K/mol
182.57 K, Glass	253.8 J/K/mol
183.25 K, Glass	259.2 J/K/mol
183.91 K, Glass	266.1 J/K/mol
184.33 K, Glass	269.6 J/K/mol
185.05 K, Liquid	286.4 J/K/mol
185.68 K, Liquid	306.2 J/K/mol
185.91 K, Liquid	312.8 J/K/mol
186.66 K, Liquid	340.5 J/K/mol
187.36 K, Liquid	351.6 J/K/mol and 351.8 J/K/mol
188.23 K, Liquid	351.6 J/K/mol
188.86 K, Liquid	353 J/K/mol
189.2 K, Liquid	353 J/K/mol
189.84 K, Liquid	354 J/K/mol
190 K, Liquid	354.1 J/K/mol
190.38 K, Liquid	354.4 J/K/mol
191.46 K, Liquid	354.4 J/K/mol
192.04 K, Liquid	354.7 J/K/mol
193.08 K, Liquid	354.7 J/K/mol
193.85 K, Liquid	354.7 J/K/mol
194.7 K, Liquid	354.7 J/K/mol
195.65 K, Liquid	354.9 J/K/mol
196.33 K, Liquid	354.9 J/K/mol
197.47 K, Liquid	355.1 J/K/mol
197.95 K, Liquid	355.1 J/K/mol
199.29 K, Liquid	355.4 J/K/mol
199.58 K, Liquid	355.4 J/K/mol
200 K, Liquid	355.5 J/K/mol
201.11 K, Liquid	355.6 J/K/mol
201.27 K, Liquid	355.6 J/K/mol
201.65 K, Liquid	355.9 J/K/mol
202.93 K, Liquid	356.1 J/K/mol
203 K, Liquid	355.9 J/K/mol
203.57 K, Liquid	356.1 J/K/mol
204.74 K, Liquid	356.1 J/K/mol
204.76 K, Liquid	356.6 J/K/mol
205.5 K, Liquid	356.3 J/K/mol
206.48 K, Liquid	356.6 J/K/mol
206.59 K, Liquid	356.8 J/K/mol
207.44 K, Liquid	356.8 J/K/mol
208.23 K, Liquid	356.8 J/K/mol
208.43 K, Liquid	357 J/K/mol
209.37 K, Liquid	357.3 J/K/mol
209.97 K, Liquid	357 J/K/mol
210 K, Liquid	357.2 J/K/mol
210.26 K, Liquid	357.3 J/K/mol
211.31 K, Liquid	357.5 J/K/mol
211.72 K, Liquid	357.5 J/K/mol
212.11 K, Liquid	357.7 J/K/mol
213.25 K, Liquid	358 J/K/mol
213.47 K, Liquid	357.7 J/K/mol
213.95 K, Liquid	358 J/K/mol
215.19 K, Liquid	358.2 J/K/mol
215.23 K, Liquid	358 J/K/mol
215.8 K, Liquid	358.5 J/K/mol
217.12 K, Liquid	358.7 J/K/mol
217.65 K, Liquid	358.7 J/K/mol
219.06 K, Liquid	359.2 J/K/mol
219.5 K, Liquid	359.2 J/K/mol
220 K, Liquid	359.2 J/K/mol
221 K, Liquid	359.4 J/K/mol
221.36 K, Liquid	359.6 J/K/mol
222.94 K, Liquid	359.9 J/K/mol
223.21 K, Liquid	359.9 J/K/mol
224.88 K, Liquid	360.3 J/K/mol
225.07 K, Liquid	360.3 J/K/mol
226.82 K, Liquid	361.1 J/K/mol
226.93 K, Liquid	360.8 J/K/mol
228.76 K, Liquid	361.3 J/K/mol
228.8 K, Liquid	361.3 J/K/mol
230 K, Liquid	361.6 J/K/mol
230.66 K, Liquid	361.8 J/K/mol
230.7 K, Liquid	361.8 J/K/mol
232.53 K, Liquid	362.2 J/K/mol
232.64 K, Liquid	362.2 J/K/mol
234.39 K, Liquid	362.7 J/K/mol
234.58 K, Liquid	362.7 J/K/mol
236.26 K, Liquid	363.2 J/K/mol
236.53 K, Liquid	363.4 J/K/mol
238.13 K, Liquid	363.9 J/K/mol
238.47 K, Liquid	363.9 J/K/mol
240 K, Liquid	364.3 J/K/mol
240.01 K, Liquid	364.4 J/K/mol
240.41 K, Liquid	364.6 J/K/mol
241.88 K, Liquid	364.8 J/K/mol
242.36 K, Liquid	365.1 J/K/mol
243.76 K, Liquid	365.3 J/K/mol
244.3 K, Liquid	365.5 J/K/mol
245.64 K, Liquid	365.8 J/K/mol
246.24 K, Liquid	366.2 J/K/mol
247.52 K, Liquid	366.5 J/K/mol
248.19 K, Liquid	366.7 J/K/mol
249.39 K, Liquid	367 J/K/mol
250 K, Liquid	367.1 J/K/mol
250.13 K, Liquid	367.4 J/K/mol
251.27 K, Liquid	367.4 J/K/mol
252.07 K, Liquid	367.9 J/K/mol
253.16 K, Liquid	368.1 J/K/mol
254.02 K, Liquid	368.6 J/K/mol
255.04 K, Liquid	368.6 J/K/mol
255.96 K, Liquid	369.1 J/K/mol
256.92 K, Liquid	369.1 J/K/mol
257.91 K, Liquid	369.8 J/K/mol
258.8 K, Liquid	369.8 J/K/mol
259.85 K, Liquid	370.3 J/K/mol
260 K, Liquid	370.1 J/K/mol
260.69 K, Liquid	370.3 J/K/mol
261.8 K, Liquid	370.7 J/K/mol
263.74 K, Liquid	371.4 J/K/mol
265.69 K, Liquid	372.2 J/K/mol
267.63 K, Liquid	372.6 J/K/mol
269.58 K, Liquid	373.3 J/K/mol
270 K, Liquid	373.3 J/K/mol
271.52 K, Liquid	373.8 J/K/mol
273.46 K, Liquid	374.3 J/K/mol
275.41 K, Liquid	375 J/K/mol
277.35 K, Liquid	375.7 J/K/mol
279.3 K, Liquid	376.2 J/K/mol
280 K, Liquid	376.4 J/K/mol
281.24 K, Liquid	376.6 J/K/mol
283.19 K, Liquid	377.4 J/K/mol
285.13 K, Liquid	378.1 J/K/mol
287.08 K, Liquid	378.3 J/K/mol
289.02 K, Liquid	379.2 J/K/mol
290 K, Liquid	379.6 J/K/mol
290.96 K, Liquid	380 J/K/mol
292.91 K, Liquid	380.7 J/K/mol
294.85 K, Liquid	381.4 J/K/mol
296.79 K, Liquid	382.1 J/K/mol
298.15 K, Liquid	382.8 J/K/mol
298.74 K, Liquid	383 J/K/mol
300 K, Liquid	383.6 J/K/mol
300.68 K, Liquid	383.7 J/K/mol
302.62 K, Liquid	384.7 J/K/mol
304.57 K, Liquid	385.4 J/K/mol
306.51 K, Liquid	386.3 J/K/mol
308.45 K, Liquid	387.3 J/K/mol
310 K, Liquid	388 J/K/mol
310.39 K, Liquid	388 J/K/mol
312.34 K, Liquid	388.9 J/K/mol
314.28 K, Liquid	389.6 J/K/mol
316.22 K, Liquid	390.6 J/K/mol
318.17 K, Liquid	391.5 J/K/mol
320 K, Liquid	392.6 J/K/mol
320.11 K, Liquid	392.5 J/K/mol
322.05 K, Liquid	393.7 J/K/mol
324 K, Liquid	394.4 J/K/mol
325.94 K, Liquid	395.3 J/K/mol
327.89 K, Liquid	396.3 J/K/mol
329.83 K, Liquid	397.2 J/K/mol
330 K, Liquid	397.3 J/K/mol
331.77 K, Liquid	398.1 J/K/mol
333.72 K, Liquid	399.1 J/K/mol
335.66 K, Liquid	400.3 J/K/mol
337.61 K, Liquid	401.5 J/K/mol
339.55 K, Liquid	402.2 J/K/mol
340 K, Liquid	402.3 J/K/mol
341.5 K, Liquid	403.1 J/K/mol
343.44 K, Liquid	404.3 J/K/mol
345.39 K, Liquid	405 J/K/mol
347.33 K, Liquid	405.9 J/K/mol
349.28 K, Liquid	407.1 J/K/mol
350 K, Liquid	407.5 J/K/mol
351.22 K, Liquid	408.1 J/K/mol
353.17 K, Liquid	409.3 J/K/mol
355.11 K, Liquid	410.2 J/K/mol
357.06 K, Liquid	411.1 J/K/mol
359 K, Liquid	412.1 J/K/mol
360 K, Liquid	412.8 J/K/mol
360.94 K, Liquid	413.3 J/K/mol
362.88 K, Liquid	414.2 J/K/mol
364.83 K, Liquid	415.2 J/K/mol
366.77 K, Liquid	416.3 J/K/mol
370 K, Liquid	418.4 J/K/mol
